Results on five compounds are retold here after patent US9273095B2, “Antibiotic peptide and preparation method therefor and application therefor” (priority 2011, dated 2016).

Non-standard residues stand in square brackets, D forms with d. Residues, ends and D or L forms follow the SMILES beside them.

For data set [1], the system named is red cell suspension from healthy volunteers. Briefly: Hemolytic activity test. Format: cell-based, human. The note with it: for Hemolytic activity, absorbancy (OD value) at 570 nm: 4 hours at 37° C., OD higher than 0.1 is hemolytic, n = 3; for hemolytic toxicity (in words): summary of Table 9. Here is the method: (1) Samples are serial diluted with sterile PBS to 1000, 500, 250, 125, 64, 32, 16, 8, 4 μg/ml in turn and spread in 96-well plates, 100 μl per orifice.
(2) We use distilled water as positive control, sterile PBS as negative control and blank orifice with 200 μl PBS solution added. Each concentration above is made in triplicate.
(3) We take 3 ml whole blood from healthy volunteers and washed it with sterile PBS three times to prepare fresh 2% concentration red cell suspension. Then we added 100 μl red cell suspension into each orifice and made them cultured for 4 hours at 37° C. in the incubator. After centrifuged by plate-swashing centrifuge, the supernatant liquid is collected and measured absorbancy (OD value) at a wavelength of 570 nm. Then we compared the hemolytic efficiency of these concentrations.
(4) According to the documents standard, OD value which is higher than 0.1 is hemolytic concentration.

A short description of data set [2]: Circular dichroism (CD) spectroscopy, helical structure. It counts as physicochemical. The note with it: for 50% TFE % helix / Benign buffer % helix: relative to ellipticity (100%) of reference peptide in 50% TFE; for Benign buffer [θ]222 / 50% TFE [θ]222: mean residue molar ellipticity at 222 nm, 25° C.; for Benign buffer [θ]222: 100 mM KCl, 50 mM PO4, pH 7.0; for 50% TFE [θ]222: buffer containing 50% TFE. As to the method: The mean residue molar ellipticities of peptides are determined by circular dichroism (CD) spectroscopy, using a Jasco J-720 spectropolarimeter (Jasco, Easton, Md.), at 25° C. under benign conditions (50 mM KH2PO4/K2HPO4/100 mM KCl, pH7), as well as in the presence of an α-helix inducing solvent, 2,2,2-trifluoroethanol (TFE) (50 mM KH2PO4/K2HPO4/100 mM KCL, pH 7 buffer/50% TFE). A 10-fold dilution of a 500 μM stock solution of the peptide is loaded into a 0.02 cm fused silica cell and its mean residue molar ellipticity scanned from 190 to 250 nm. The values of mean residue molar ellipticities of the peptide at a wavelength of 222 nm are used to estimate the relative amount of α-helicity of the peptides.
To determine the secondary structure of peptides in different environments, circular dichroism (CD) spectra of the peptide analogs are measured under physiologically related pH and ionic strength (100 mM KCl, 50 mM aq. PO4, pH 7 referred to as benign conditions) and also in 50% TFE to mimic the hydrophobic environment of the membrane. CD spectra of the peptide analogs are measured under benign conditions (100 mM KCl, 50 mM KH2PO4/K2HPO4, pH 7, referred to as KP buffer) and also in 50% trifluoroethanol (TFE) to mimic the hydrophobic environment of the membrane. […] However, in the presence of 50% TFE, all three L-peptides are fully folded α-helical structures with similar molar ellipticities and helicity.
FIG. 2 illustrates graphical results of Circular dichroism (CD) spectra of peptides at pH 7.4 and 25° C., in 50 mM aq. PO4 containing 100 mM KCl, wherein KP buffer (50 mM KH2PO4, K2HPO4, 100 mM KCl, pH 7.4) mimics hydrophilic environment and KP buffer-TFE (1:1 [vol/vol]) mimics hydrophobic environment of cell membrane. The figure above represents the CD spectra of peptides in benign buffer without TFE, whilst the figure below represents CD spectra obtained in the presence of 50% TFE.

Data set [3] has as its system Staphylococcus aureus ATCC25923. Briefly: Anti-infection test of externally-applied agent on skin, viable count. Format: in vivo, ICR mice. The note with it: for viable count, Liver (1:5) / viable count, Skin (1:10) / viable count, Spleen (1:5) / viable count, Whole blood: 0.1 ml morning and evening for 7 days, n = 10; for inhibition of skin infection (in words): externally-applied agent, twice daily for 7 days, Staphylococcus aureus. From the text:
(§1) 1. Experimental Strains: Staphylococcus epidermidis ATCC12228 and Staphylococcus aureus ATCC25923
(§2) There are 50 male ICR mice with the weight of 20±2 g. According to their weight, they are randomly divided into 5 groups of 10 mice: negative infected control group, Bactroban positive control group, 1% concentration cream group, 1‰ concentration cream group and blank ground substance group. Each group is raised in the same plastic case. Their blank parts, heads, necks, backs and tails are marked with picric acid marking method. All the mice are raised with ordinary animal feeds in the ordinary animal houses and they could drink water freely. Alternating of light and dark is conducted every 12 hours.
(§3) There are preparation of 1% concentration, 1‰ concentration, and blank ground substance preparation (supplied by Jiangsu ProteLight Pharmaceutical & Biotechnology Co., LTD.) and Bactroban (supplied by SK&F).
(§4) (1) The bacteria strains which preserved in liquid nitrogen are inoculated to MHB plate and cultured overnight at 37° C.
(§5) (2) The solid strains are inoculated to MHB liquid medium and overnight cultured shakily at the speed of 220 rpm at 37° C.
(§6) (3) The bacterial suspension cultured overnight is diluted to 5×10^6CFU/ml and applied in reserve.
(§7) (4) Skin modeling: Mice's back are sheared and depilated by depilatory paste. After the hair off, they are abraded with 0.3 mm-long sandpaper to bleeding and injected 0.1 ml bacterial suspension with the concentration of 5×10^6CFU/ml subcutaneously.
(§8) (5) Administration: All the groups except the negative infected control group are respectively applied different cream with the dosage of 0.1 ml once respectively in the morning and evening for 7 days.
(§9) (6) After 7 days, the visceral organs, blood and infected skin of mice are collected by aseptic method to count viable bacteria.

Data set [4] has as its system Staphylococcus epidermidis ATCC12228. The data set is described as above. Format: in vivo, ICR mice. The settings on record: for viable count, Liver (1:5) / viable count, Skin (1:10) / viable count, Spleen (1:5) / viable count, Whole blood: 0.1 ml morning and evening for 7 days, n = 10; for inhibition of skin infection (in words): externally-applied agent, twice daily for 7 days, Staphylococcus epidermidis.
From the text: as §1, §2, §3, §4, §5, §6, §7, §8, §9

Turning to `CC[C@@H](C)[C@@H](NC(=O)[C@@H](CCCCN)NC(=O)[C@@H](CO)NC(=O)[C@@H](Cc1ccccc1)NC(=O)[C@@H](CC(C)C)NC(=O)[C@@H](CCCCN)NC(=O)[C@@H](CCC(=O)O)NC(=O)[C@@H](CC(C)C)NC(=O)[C@@H](CCCNC(=N)N)NC(=O)[C@@H](CCCCN)NC(=O)[C@@H](Cc1ccccc1)NC(C)=O)C(=O)N[C@H](Cc1c[nH]c2ccccc12)C(=O)N[C@H](CC(N)=O)C(=O)N[C@H](Cc1c[nH]c2ccccc12)C(=O)N[C@H](CCCCN)C(N)=O` [PL-17] (Ac-[dF][dK][dR][dL][dE][dK][dL][dF][dS][dK][dI][dW][dN][dW][dK]-NH2), the “Hemolytic activity, absorbancy (OD value) at 570 nm” value (from here on “Hemolytic activity, absorbancy”) is 0.033 in data set [1] (peptide 7.8125 μg/ml); 0.056 in data set [1] (peptide 15.625 μg/ml); 0.063 in data set [1] (peptide 31.25 μg/ml); 0.065 in data set [1] (peptide 62.5 μg/ml); 0.078 in data set [1] (peptide 125 μg/ml); 0.082 in data set [1] (peptide 250 μg/ml). Also, the “Hemolytic activity, absorbancy” value in data set [1] (peptide 500 μg/ml) turned out to be 0.152; in data set [1] (peptide 1000 μg/ml) it was 0.339. Besides, the “hemolytic toxicity (in words)” value in data set [1] was “little hemolytic toxicity”.

On to `CC(=O)N[C@H](Cc1ccccc1)C(=O)N[C@H](CCCCN)C(=O)N[C@H](CCCCN)C(=O)N[C@H](Cc1ccccc1)C(=O)N[C@H](CCCCN)C(=O)N[C@H](CCCCN)C(=O)N[C@H](CC(C)C)C(=O)N[C@H](CC(C)C)C(=O)N[C@H](CO)C(=O)N[C@H](CCCCN)C(=O)N[C@H](CC(C)C)C(=O)N[C@H](Cc1c[nH]c2ccccc12)C(=O)N[C@H](CC(N)=O)C(=O)N[C@H](Cc1c[nH]c2ccccc12)C(=O)N[C@H](CCCCN)C(N)=O` [PL-43] (Ac-[dF][dK][dK][dF][dK][dK][dL][dL][dS][dK][dL][dW][dN][dW][dK]-NH2; N-terminus and C-terminus assumed), for which, in data set [2], the “50% TFE % helix” value is reported as 96.3% and the “Benign buffer % helix” value was determined as 14.0%.

Take Ac-FKKLKKLFSKLWNWK-NH2 [PL-13]: the “Hemolytic activity, absorbancy” value in data set [1] (peptide 7.8125 μg/ml) amounted to 0.043; in data set [1] (peptide 15.625 μg/ml), 0.059; in data set [1] (peptide 31.25 μg/ml) it was 0.065; in data set [1] (peptide 62.5 μg/ml), 0.090; in data set [1] (peptide 125 μg/ml), 0.117; in data set [1] (peptide 250 μg/ml), 0.184. Moreover, the “Hemolytic activity, absorbancy” value worked out at 0.220 in data set [1] (peptide 500 μg/ml) and 0.310 in data set [1] (peptide 1000 μg/ml). The “hemolytic toxicity (in words)” value in data set [1] is “little hemolytic toxicity”. In addition, the “viable count, Liver (1:5)” value in data set [3] (1% externally-applied agent) stood at 10 CFU/plate; in data set [3] (1‰ externally-applied agent), 12 CFU/plate; in data set [4] (1% externally-applied agent), 12 CFU/plate; in data set [4] (1‰ externally-applied agent), 10 CFU/plate. In addition, the “viable count, Skin (1:10)” value in data set [3] (1% externally-applied agent) is listed as 852 CFU/plate; in data set [3] (1‰ externally-applied agent), 1005 CFU/plate; in data set [4] (1% externally-applied agent) it was 369 CFU/plate; in data set [4] (1‰ externally-applied agent) it was 425 CFU/plate. Besides, the “viable count, Spleen (1:5)” value in data set [3] (1% externally-applied agent) came to 6 CFU/plate; in data set [3] (1‰ externally-applied agent), 14 CFU/plate; in data set [4] (1% externally-applied agent) it was 5 CFU/plate; in data set [4] (1‰ externally-applied agent), 17 CFU/plate. Also, the “viable count, Whole blood” value in data set [3] (1% externally-applied agent) was 8 CFU/plate; in data set [3] (1‰ externally-applied agent) it was 11 CFU/plate; in data set [4] (1% externally-applied agent) it was 10 CFU/plate; in data set [4] (1‰ externally-applied agent), 18 CFU/plate. In addition, the “inhibition of skin infection (in words)” value in data set [3] and in data set [4] was “effective” each time. The “50% TFE % helix” value in data set [2] was found to be 80.7%. In addition, in data set [2], the “Benign buffer % helix” value is given as 8.3%. Also, the “Benign buffer [θ]222” value in data set [2] is on record as −2350 deg · cm^2 · dmol^−1. The “50% TFE [θ]222” value in data set [2] is given as −22750 deg · cm^2 · dmol^−1.

For `CC(=O)N[C@H](Cc1ccccc1)C(=O)N[C@H](CCCCN)C(=O)N[C@H](CCCCN)C(=O)N[C@H](CC(C)C)C(=O)N[C@H](CCCCN)C(=O)N[C@H](CCCCN)C(=O)N[C@H](CC(C)C)C(=O)N[C@H](Cc1ccccc1)C(=O)N[C@H](CO)C(=O)N[C@H](CCCCN)C(=O)N[C@H](CC(C)C)C(=O)N[C@H](Cc1c[nH]c2ccccc12)C(=O)N[C@H](CC(N)=O)C(=O)N[C@H](Cc1c[nH]c2ccccc12)C(=O)N[C@H](CCCCN)C(N)=O` [PL-18] (Ac-[dF][dK][dK][dL][dK][dK][dL][dF][dS][dK][dL][dW][dN][dW][dK]-NH2), in data set [3] (1% externally-applied agent), the “viable count, Liver (1:5)” value worked out at 9 CFU/plate; the “viable count, Skin (1:10)” value is recorded as 997 CFU/plate; the “viable count, Spleen (1:5)” value was determined as 8 CFU/plate; the “viable count, Whole blood” value amounted to 16 CFU/plate. Besides, in data set [3] (1‰ externally-applied agent), the “viable count, Liver (1:5)” value worked out at 11 CFU/plate; the “viable count, Skin (1:10)” value is given as 1051 CFU/plate; the “viable count, Spleen (1:5)” value is reported as 15 CFU/plate; the “viable count, Whole blood” value is listed as 12 CFU/plate. In data set [3], the “inhibition of skin infection (in words)” value is given as “effective”. For the same compound, in data set [4] (1% externally-applied agent), the “viable count, Liver (1:5)” value stood at 17 CFU/plate; the “viable count, Skin (1:10)” value worked out at 276 CFU/plate; the “viable count, Spleen (1:5)” value is on record as 5 CFU/plate; the “viable count, Whole blood” value was found to be 16 CFU/plate. For the same compound, in data set [4] (1‰ externally-applied agent), the “viable count, Liver (1:5)” value is 8 CFU/plate; the “viable count, Skin (1:10)” value worked out at 425 CFU/plate; the “viable count, Spleen (1:5)” value is given as 13 CFU/plate; the “viable count, Whole blood” value was 19 CFU/plate. In data set [4], the “inhibition of skin infection (in words)” value is “effective”. In data set [2], the “50% TFE % helix” value came to 80.5%, the “Benign buffer % helix” value stood at 8.2% and the “Benign buffer [θ]222” value is reported as 2300 deg · cm^2 · dmol^−1.

With Ac-FKRLEKLFSKIWNWK-NH2 [PL-12], in data set [2], the “50% TFE % helix” value was 93.8%, the “Benign buffer % helix” value came to 11.9%, the “Benign buffer [θ]222” value is given as −3350 deg · cm^2 · dmol^−1 and the “50% TFE [θ]222” value is recorded as −26450 deg · cm^2 · dmol^−1. For the same compound, the “secondary structure by CD (in words)” value in data set [2] (KP buffer (benign)) was “only partially helical”.
